± gives the expanded uncertainty stated by the source.
Assays:
[1] = cn = amount concentration of the nth substance listed, in mol/dm3; details: 100 kPa, Liquid
[2] = 298.15 K, Liquid; for viscosity: 100 kPa; for mass density: 101.33 kPa

[I-].[K+] [potassium iodide] + CO
[1]
Details	mass density [kg/m3]	viscosity [mPa·s]
298.15 K, c1 = 0.0906	800.8 ± 1.1	0.578 ± 0.02
298.15 K, c1 = 0.1458	809 ± 1.1	0.598 ± 0.021
298.15 K, c1 = 0.1806	814.3 ± 1.1	0.609 ± 0.021
298.15 K, c1 = 0.2451	824.3 ± 1	0.628 ± 0.022
298.15 K, c1 = 0.3767	845.3 ± 1	0.665 ± 0.023
298.15 K, c1 = 0.4151	851.6 ± 0.9	0.677 ± 0.023
298.15 K, c1 = 0.4787	862.2 ± 0.9	0.695 ± 0.023
298.15 K, c1 = 0.5381	872.4 ± 0.9	0.724 ± 0.024
298.15 K, c1 = 0.614	885.4 ± 0.8	0.737 ± 0.025
298.15 K, c1 = 0.6541	892.7 ± 0.8	0.75 ± 0.025
303.15 K, c1 = 0.0901	796.1 ± 1.2	0.539 ± 0.019
303.15 K, c1 = 0.1449	804.3 ± 1.1	0.558 ± 0.02
303.15 K, c1 = 0.1795	809.6 ± 1.1	0.568 ± 0.02
303.15 K, c1 = 0.2437	819.5 ± 1.1	0.587 ± 0.02
303.15 K, c1 = 0.3745	840.6 ± 1	0.62 ± 0.021
303.15 K, c1 = 0.4127	846.8 ± 1	0.631 ± 0.022
303.15 K, c1 = 0.476	857.5 ± 0.9	0.653 ± 0.022
303.15 K, c1 = 0.535	867.6 ± 0.9	0.664 ± 0.023
303.15 K, c1 = 0.6106	880.5 ± 0.8	0.685 ± 0.023
303.15 K, c1 = 0.6505	887.8 ± 0.8	0.697 ± 0.024
308.15 K, c1 = 0.0895	791.3 ± 1.2	0.504 ± 0.018
308.15 K, c1 = 0.1441	799.6 ± 1.1	0.522 ± 0.019
308.15 K, c1 = 0.1785	804.9 ± 1.1	0.532 ± 0.019
308.15 K, c1 = 0.2423	814.8 ± 1.1	0.548 ± 0.019
308.15 K, c1 = 0.3724	835.8 ± 1	0.58 ± 0.02
308.15 K, c1 = 0.4104	842 ± 1	0.59 ± 0.021
308.15 K, c1 = 0.4733	852.7 ± 0.9	0.615 ± 0.021
308.15 K, c1 = 0.5321	862.8 ± 0.9	0.623 ± 0.021
308.15 K, c1 = 0.6073	875.7 ± 0.8	0.639 ± 0.022
308.15 K, c1 = 0.647	883 ± 0.8	0.651 ± 0.022
313.15 K, c1 = 0.1432	794.8 ± 1.2	0.489 ± 0.018
313.15 K, c1 = 0.1774	800.1 ± 1.1	0.498 ± 0.018
313.15 K, c1 = 0.2409	810 ± 1.1	0.513 ± 0.018
313.15 K, c1 = 0.3704	831.1 ± 1	0.543 ± 0.019
313.15 K, c1 = 0.4081	837.2 ± 1	0.552 ± 0.019
313.15 K, c1 = 0.4707	847.8 ± 1	0.572 ± 0.02
313.15 K, c1 = 0.5291	858 ± 0.9	0.58 ± 0.02
313.15 K, c1 = 0.604	870.8 ± 0.9	0.598 ± 0.021
313.15 K, c1 = 0.6435	878.1 ± 0.8	0.608 ± 0.021

CO [methanol]
[2]
Details	mass density [kg/m3]	viscosity [mPa·s]
–	786.2 ± 1.2	0.545 ± 0.019

CCO [ethanol]
[2]
Details	mass density [kg/m3]	viscosity [mPa·s]
–	785.2 ± 1.2	1.082 ± 0.034

[I-].[NH4+] [ammonium iodide] + CCO
[1]
Details	mass density [kg/m3]	viscosity [mPa·s]
298.15 K, c1 = 0.1638	804.1 ± 1.1	1.229 ± 0.038
298.15 K, c1 = 0.2289	811.7 ± 1.1	1.275 ± 0.04
298.15 K, c1 = 0.3302	823.9 ± 1	1.35 ± 0.042
298.15 K, c1 = 0.4015	832.7 ± 1	1.414 ± 0.044
298.15 K, c1 = 0.4696	841.1 ± 1	1.495 ± 0.046
298.15 K, c1 = 0.6094	859.4 ± 0.9	1.557 ± 0.048
298.15 K, c1 = 0.6694	867 ± 0.9	1.598 ± 0.049
298.15 K, c1 = 0.7343	875.8 ± 0.8	1.663 ± 0.051
298.15 K, c1 = 0.8676	894.5 ± 0.8	1.77 ± 0.053
298.15 K, c1 = 0.972	908.9 ± 0.7	1.839 ± 0.055
303.15 K, c1 = 0.1629	799.8 ± 1.1	1.12 ± 0.035
303.15 K, c1 = 0.2276	807.4 ± 1.1	1.161 ± 0.037
303.15 K, c1 = 0.3285	819.6 ± 1.1	1.225 ± 0.038
303.15 K, c1 = 0.3994	828.4 ± 1	1.284 ± 0.04
303.15 K, c1 = 0.4673	836.9 ± 1	1.359 ± 0.042
303.15 K, c1 = 0.6064	855.1 ± 0.9	1.413 ± 0.044
303.15 K, c1 = 0.6661	862.7 ± 0.9	1.454 ± 0.045
303.15 K, c1 = 0.7307	871.6 ± 0.9	1.499 ± 0.046
303.15 K, c1 = 0.8635	890.2 ± 0.8	1.599 ± 0.049
303.15 K, c1 = 0.9674	904.7 ± 0.7	1.674 ± 0.051
308.15 K, c1 = 0.162	795.5 ± 1.2	1.048 ± 0.033
308.15 K, c1 = 0.2264	803.1 ± 1.1	1.059 ± 0.034
308.15 K, c1 = 0.3268	815.3 ± 1.1	1.117 ± 0.035
308.15 K, c1 = 0.3974	824.1 ± 1	1.165 ± 0.037
308.15 K, c1 = 0.4658	834.2 ± 3	1.241 ± 0.039
308.15 K, c1 = 0.6033	850.8 ± 0.9	1.287 ± 0.04
308.15 K, c1 = 0.6628	858.4 ± 0.9	1.327 ± 0.041
308.15 K, c1 = 0.7271	867.3 ± 0.9	1.365 ± 0.042
308.15 K, c1 = 0.8593	885.9 ± 0.8	1.459 ± 0.045
308.15 K, c1 = 0.9628	900.4 ± 0.7	1.544 ± 0.047
313.15 K, c1 = 0.1611	791.1 ± 1.2	0.935 ± 0.03
313.15 K, c1 = 0.2252	798.8 ± 1.1	0.968 ± 0.031
313.15 K, c1 = 0.3251	811 ± 1.1	1.02 ± 0.033
313.15 K, c1 = 0.3952	819.7 ± 1.1	1.062 ± 0.034
313.15 K, c1 = 0.4634	829.3 ± 1	1.1 ± 0.035
313.15 K, c1 = 0.6003	846.5 ± 1	1.175 ± 0.037
313.15 K, c1 = 0.6595	854.1 ± 0.9	1.226 ± 0.038
313.15 K, c1 = 0.7235	863 ± 0.9	1.246 ± 0.039
313.15 K, c1 = 0.8551	881.6 ± 0.8	1.324 ± 0.041
313.15 K, c1 = 0.9582	896.1 ± 0.8	1.388 ± 0.043

Source: the NIST ThermoML archive (doi:10.1021/je049808f)
